Experiments:
C57BL/6J mice = assay: Biotelemetry and head-twitch response (HTR) experiments; type: in vivo, mice (C57BL/6J males); conditions: male C57BL/6 mice, SC, several doses (0.03 to 30 mg/kg)
Text: Mice (C57BL/6J males) were purchased from the Jackson Laboratory (Bar Harbor, ME, USA) at 5-6 weeks of age and allowed at least 1-2 weeks to acclimate to the NIDA, Intramural Research Program (IRP), animal research facility in Baltimore, MD, USA. The animal facility is fully accredited by the Association for the Assessment and Accreditation of Laboratory Animal Care, and all procedures were approved by the NIDA IRP Animal Care and Use Committee. Mice were initially group housed 3-5 per cage during acclimation and housed in a 12 h light-dark cycle throughout the study, with lights on at 0700 h. Food and water were available ad libitum except during testing. Cohorts of 20-24 mice were used for each test drug. The mice were subjected to experimental testing once every 1-2 weeks for 2-3 months to complete dose-effect curves and antagonist experiments. A minimum of 7 days between treatments was utilized to avoid any tolerance to effects of repeated drug administration. All drug doses represent the weight of the salt dissolved in 0.9% saline vehicle. Mice were tested first in dose-response studies to assess the effects of each compound at doses from 0.03 to 30 mg/kg s.c. and were subsequently tested in antagonist reversal studies utilizing pretreatment with M100907 and WAY100635. All experiments were conducted from 0900 to 1700 local time during the light phase, as sensitivity of rodents to other tryptamine psychedelics is diurnal, with maximal HTR observed in the middle of the light phase. […]
Subcutaneous Temperature Transponder Implants. […] Temperature was determined noninvasively using a handheld receiver that is sensitive to signals emitted from the implanted transponders.
Prior to each experiment, mouse body weight and temperature were recorded. […] In dose-response studies, after a brief 5 min acclimation, mouse body temperature was recorded for baseline measurement, mice received s.c. injection of test substance or vehicle, and animals were returned to the testing arena for 30 min. During the session, locomotor activity was monitored via photobeam tracking of movements in the horizontal plane to yield distance traveled in centimeter. HTR was monitored by the analysis of GoPro Hero Black 7 video recordings (120 frames per see and 960p resolution) using a commercially available software package from Clever Sys Inc. (Reston, VA, USA).82 Post-treatment body temperature values were also recorded, and temperature data are represented as change from pretreatment baseline.
In antagonist reversal experiments, mice received a s.c. injection of either receptor antagonists or vehicle and were returned to the testing chamber for 30 min. During this period, locomotor activity was monitored to examine the potential effects of antagonist treatment on general behavior or movement. […]

Male ICR mice = assay: Acute restraint stress - tail suspension test (TST); type: in vivo; conditions: ICR mice after 5 h acute restraint stress, IP; P-3 3, 10 mg/kg; P-8 3, 10, 30 mg/kg; vs vehicle
Description: Male ICR mice (23±3 g) were purchased from BioLASCO (Taipei, Taiwan) at 4-5 weeks of age and allowed 5-7 days to acclimate to the animal research facility at Pharmacology Discovery Services (Taipei, Taiwan). Mice were housed in groups of 10 in a large cage (47×25×15 cm) on a 12-hour light cycle (lights on: 0700) and provided ad libitum food and water except during acute restraint stress and tail-suspension testing. Temperature was maintained at 20-24° C., and all rooms (colony and testing rooms) had similar lighting intensity. All aspects of this work including housing, experimentation, and animal disposal were performed in accordance with the “Guide for the Care and Use of Laboratory Animals: Eighth Edition” (The National Academies Press, Washington, DC, 2011) in a facility accredited by the Association for Assessment and Accreditation of Laboratory Animal Care. […]
Tail Suspension Test (TST) Procedure: Mice were individually suspended on the edge of a shelf, 58 cm above a tabletop, using adhesive tape placed approximately 1 cm from the tip of the tail, for a total duration of 7 minutes. Using a stopwatch, the experimenters blinded to treatment groups recorded the duration of immobility (defined as hanging passively and motionless) during the 5 minutes spanning from 2-7 minutes. The data from 0-2 minutes was not recorded. […]

5-HT2A receptor = target: T1, 5-HT2A receptor (Homo sapiens, UniProt P28223); assay: FLIPR Ca2+ flux functional assay, agonist activity at 5-HT2A; type: cell-based; conditions: stably transfected HEK293 cells
T1 construct: host or cells: HEK293
T1 sequence (P28223 whole entry): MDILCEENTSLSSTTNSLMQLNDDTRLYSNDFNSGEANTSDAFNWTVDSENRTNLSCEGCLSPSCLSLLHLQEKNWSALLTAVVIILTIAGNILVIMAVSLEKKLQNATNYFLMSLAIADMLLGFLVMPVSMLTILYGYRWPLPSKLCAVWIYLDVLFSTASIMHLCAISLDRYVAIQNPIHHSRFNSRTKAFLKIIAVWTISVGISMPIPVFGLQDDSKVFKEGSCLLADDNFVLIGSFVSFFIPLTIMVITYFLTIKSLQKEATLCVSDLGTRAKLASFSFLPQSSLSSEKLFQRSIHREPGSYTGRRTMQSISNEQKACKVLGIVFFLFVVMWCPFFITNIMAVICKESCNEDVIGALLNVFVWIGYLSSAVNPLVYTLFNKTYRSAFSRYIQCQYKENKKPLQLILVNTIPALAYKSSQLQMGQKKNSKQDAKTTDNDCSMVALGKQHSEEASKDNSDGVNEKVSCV
Description: (§1) Functional assays 5-HT2A, 5-HT2B and 5-HT2C Receptors
(§2) Activity at 5-HT2A, 5-HT2B and 5-HT2C receptors was determined using a FLIPR Ca2+ flux assay at WuXi AppTec Co. Ltd. (Hong Kong) Discovery Biology Unit according to their standard protocols. Briefly, stably transfected cells expressing the receptor of interest (HEK293 for 5-HT2A and 5-HT2C; CHO-K1 for 5-HT2B) were grown and plated in a 384 well plate and incubated at 37° C. and 5% CO2 overnight. A 250 mM stock solution of probenecid in FLIPR calcium assay buffer (10 mL) was freshly prepared and combined with a fluorescent dye (Fluo-4 Direct) to give a final assay concentration of 2.5 mM. Reference compounds were 4-fold serially diluted and the screening compounds were 3-fold serially diluted in 100% DMSO for 10 points using Agilent Bravo, and 750 nL was added to a 384 well compound plate using Echo along with 30 μL assay buffer. The fluorescent dye was then added to the assay plate along with assay buffer to a final volume of 40 μL. The cell plate was incubated for 50 min at 37° C. and 5% CO2 and placed into the FLIPR Tetra along with the compound plate. 10 μL of references and compounds were then transferred from the compound plate into the cell plate and the fluorescent signal was read.

5-HT2C receptor = target: T2, 5-HT2C receptor (Homo sapiens, UniProt P28335); assay: FLIPR Ca2+ flux functional assay, agonist activity at 5-HT2C; type: cell-based; conditions: stably transfected HEK293 cells
T2 construct: host or cells: HEK293
T2 sequence (P28335 33-458): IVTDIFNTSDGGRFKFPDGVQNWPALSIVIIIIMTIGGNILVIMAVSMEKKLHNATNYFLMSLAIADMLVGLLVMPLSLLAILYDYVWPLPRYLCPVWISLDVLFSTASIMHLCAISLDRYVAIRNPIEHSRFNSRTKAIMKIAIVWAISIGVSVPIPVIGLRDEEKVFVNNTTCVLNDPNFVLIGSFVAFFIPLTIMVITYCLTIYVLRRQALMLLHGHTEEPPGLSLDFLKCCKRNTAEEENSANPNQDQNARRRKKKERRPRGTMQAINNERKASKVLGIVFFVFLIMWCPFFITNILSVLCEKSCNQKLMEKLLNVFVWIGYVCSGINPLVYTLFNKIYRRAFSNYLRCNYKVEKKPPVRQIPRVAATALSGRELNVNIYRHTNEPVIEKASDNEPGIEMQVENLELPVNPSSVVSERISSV
Description: as §1, §2

5-HT2B receptor = target: T3, 5-HT2B receptor (Homo sapiens, UniProt P41595); assay: 5-HT2B activation in a similar assay at a single 10 μM concentration; type: cell-based
T3 construct: host or cells: CHO-K1
T3 sequence (P41595 whole entry): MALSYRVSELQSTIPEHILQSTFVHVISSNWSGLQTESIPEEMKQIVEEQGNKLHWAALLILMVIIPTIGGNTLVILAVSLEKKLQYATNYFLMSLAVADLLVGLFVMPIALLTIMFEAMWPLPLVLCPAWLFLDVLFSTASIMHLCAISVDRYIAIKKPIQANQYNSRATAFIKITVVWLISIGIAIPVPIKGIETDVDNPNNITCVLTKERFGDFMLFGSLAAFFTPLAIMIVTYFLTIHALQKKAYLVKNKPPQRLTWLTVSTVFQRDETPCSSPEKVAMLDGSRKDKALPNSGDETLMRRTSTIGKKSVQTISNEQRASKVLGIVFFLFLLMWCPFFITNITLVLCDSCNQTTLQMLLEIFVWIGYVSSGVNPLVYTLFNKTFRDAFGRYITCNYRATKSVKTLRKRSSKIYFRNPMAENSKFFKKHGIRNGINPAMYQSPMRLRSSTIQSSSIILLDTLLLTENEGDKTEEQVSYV
Description: Activation data are provided in a similar assay tested at a single 10 μM concentration.

SMILES	Head-twitch response (HTR) (C57BL/6J mice)	Tolerability (temperature, locomotor activity, HTR; FIGS. 2-5) (C57BL/6J mice)	Immobility time in tail suspension test (FIG. 6) (Male ICR mice)	EC50 (5-HT2A receptor)	Emax (5-HT2A receptor)	EC50 (5-HT2C receptor)	Emax (5-HT2C receptor)	5-HT2B % Activation @ 10 μM (5-HT2B receptor)
COc1ccnc2[nH]cc(CCN(C)C)c12 [Compound P-4, 2-(4-methoxy-1H-pyrrolo[2,3-b]pyridin-3-yl)-N,N-dimethylethan-1-amine]	not promoting increased head-twitch response	well-tolerated						
COc1cnc2[nH]cc(CCN(C)C)c2c1 [Compound P-3, 2-(5-methoxy-1H-pyrrolo[2,3-b]pyridin-3-yl)-N,N-dimethylethan-1-amine]	not promoting increased head-twitch response	well-tolerated	decrease the immobility time of mice					
CCN(C)CCc1c[nH]c2ncc(OC(F)(F)F)cc12 [Compound S64, N-ethyl-N-methyl-2-(5-(trifluoromethoxy)-1H-pyrrolo[2,3-b]pyridin-3-yl)ethan-1-amine]				1670 nM	47%	> 10 µM	0%	1%
C[C@H]1CCCN1CCc1c[nH]c2ncc(F)cc12 [Compound S51, (S)-5-fluoro-3-(2-(2-methylpyrrolidin-1-yl)ethyl)-1H-pyrrolo[2,3-b]pyridine]				394 nM	86%	> 10 µM	2%	0%

— patent US20250361233A1, “Compounds For Activating Serotonin Receptor” (PSYLO PTY LTD, priority 2023, published 2025)
